# Laboratory results taken from patent US20240277658A1, “NLRP3 ACTIVATORS FOR USE IN THE TREATMENT OF INFECTIOUS DISEASES OR CANCER BY ACTIVATING NLRP3 INFLAMMASOME” (ALBERT-LUDWIGS-UNIVERSITÄT FREIBURG, priority 2020, published 2024).
# Several values for one entry are separate records, joined by “and”; a condition that tells them apart may be missing. Equal entries are not always repeated. Where two headings read alike, the source gives them in different places.
# Key:
# [1] = tested on: BMDCs; assay: LDH release (lytic cell death, pyroptosis) from LPS-primed BMDCs; format: cell-based, mouse; conditions: for cytotoxicity at 18.75 µM / cytotoxicity at 37.5 µM / cytotoxicity at 75 µM / cytotoxicity at 50 µM: Mus musculus, BMDC; for Average (% positive control): LDH release; for cytotoxicity at 50 µM: LPS-primed BMDCs
# Description: (§1) This was tested in cell culture in several different in vitro assays classically used to investigate inflammasome activation. These include measuring inflammasome-dependent lytic cell death (pyroptosis) by detecting release of the cytosolic enzyme lactate dehydrogenase (LDH) using a commercial colorimetric assay and release of proinflammatory cytokines like IL-1β by enzyme-linked immunosorbent assay (ELISA), analyzing cleavage and activation of caspase-1 and IL-1β by immunoblotting and immunofluorescence imaging of ASC speck formation. Lytic cell death was determined via LDH release. Assay results for compounds are illustrated in the Tables below, wherein the concentration of the compounds tested had been 50 μM or as indicated in the table, and the concentration of the known activators has been tested with 5 μM of nigericin, 100 μM of each R837 and CL097. For classification of the activity of a given molecule, release of IL-1β was quantified as % of IL-1% of a respective control activator used for the experiment (highlighted in tables with bold letters). The compounds listes in Table 1 were classified into 4 groups depending on their ability to induce the NLRP3 inflammasome activation, assessed by % IL-1β release as compared to the positive control.
# (§2) Mouse bone marrow-derived dendritic cells (BMDCs) were isolated from femurs and tibias previously described (Gross, Olaf, 2012, “Measuring the inflammasome”, Methods in molecular biology, Clifton, N.J., 844, pp. 199-222.). In brief, tibias and femurs were carefully removed and put to sterile 70% ethanol for 1 minute. Using a 22-G needle attached to a 20 ml-syringe filled with sterile flushing medium, the bone marrow was pressed through the mesh of a […] cell strainer. The cells were spun down by centrifugation at 400×g, 4° C. for 5 minutes and red blood cells lysed by resuspension and incubation for 5 minutes at room temperature in RBC lysis buffer. 9 ml of flushing medium were added and cells were again spun down by centrifugation at 400×g, 4° C. for 5 minutes. Cells were then resuspended in BMDC medium (RPMI, 10% fetal bovine serum, 1% penicillin-streptomycin100 U/ml, 20 ng/ml recombinant murine GM-CSF), counted and plated at a density of 0.5×10^6 cells ml^−1 in 10 ml medium and incubated at 37° C., 5% CO2 in a humidified incubator. After 2 days, 10 ml of fresh medium were added to the cells and after 4 days, the medium was fully exchanged to 20 ml of fresh medium. The cells were allowed to differentiate for 6 to 8 days before usage.
# (§3) For canonical inflammasome activation BMDCs after 7-9 days of differentiation were harvested and counted with a Neubauer Chamber (Hecht Assistant) and the concentration was set to 1 Mio cells ml^−1. 100 μl cell suspension per well were seeded in 96-well plates. The cells were primed with 50 ng ml^−1 E. coli K12 ultra-pure LPS for 3 hours and subsequently treated with canonical inflammasome activators or experimental compounds for 3 hours if not indicated differently (incubation time FIG. 4D, 5, 7, 8, 11, 13-18: 3 h, FIG. 12: 4 h). Concentrations of the stimuli were as follows if not indicated differently: 5 μM nigericin, 100 μM imiquimod (also known as R837), 100 μM CL097, 100 μM R848, […] poly(dA:dT), 300 μg ml^−1 MSU. If an inhibitor was used before stimuli treatment, the inhibitor was added after 2.5 hours of priming and it was incubated for 30 minutes before inflammasome activation. Inhibitors were used as follows: 3 μM MCC950, 45 mM KCl, 30 μM ebselen (2-Phenyl-1,2-benzoselenazol-3-one), 5 μM cytochalasin D (see FIGS. 8, 11, 12 and 17).
# (§4) All inflammasome stimulations were performed in three technical replicates for each condition. […]
# [2] = target: T1, NLRP3 inflammasome (Mus musculus, UniProt Q8R4B8); assay: IL-1β release from LPS-primed BMDCs (ELISA) as readout of NLRP3 inflammasome activation; format: cell-based
# T1 construct: endogenous in cells; host or cells: primary mouse bone marrow-derived dendritic cells (BMDCs), LPS-primed
# T1 sequence (Q8R4B8 whole entry): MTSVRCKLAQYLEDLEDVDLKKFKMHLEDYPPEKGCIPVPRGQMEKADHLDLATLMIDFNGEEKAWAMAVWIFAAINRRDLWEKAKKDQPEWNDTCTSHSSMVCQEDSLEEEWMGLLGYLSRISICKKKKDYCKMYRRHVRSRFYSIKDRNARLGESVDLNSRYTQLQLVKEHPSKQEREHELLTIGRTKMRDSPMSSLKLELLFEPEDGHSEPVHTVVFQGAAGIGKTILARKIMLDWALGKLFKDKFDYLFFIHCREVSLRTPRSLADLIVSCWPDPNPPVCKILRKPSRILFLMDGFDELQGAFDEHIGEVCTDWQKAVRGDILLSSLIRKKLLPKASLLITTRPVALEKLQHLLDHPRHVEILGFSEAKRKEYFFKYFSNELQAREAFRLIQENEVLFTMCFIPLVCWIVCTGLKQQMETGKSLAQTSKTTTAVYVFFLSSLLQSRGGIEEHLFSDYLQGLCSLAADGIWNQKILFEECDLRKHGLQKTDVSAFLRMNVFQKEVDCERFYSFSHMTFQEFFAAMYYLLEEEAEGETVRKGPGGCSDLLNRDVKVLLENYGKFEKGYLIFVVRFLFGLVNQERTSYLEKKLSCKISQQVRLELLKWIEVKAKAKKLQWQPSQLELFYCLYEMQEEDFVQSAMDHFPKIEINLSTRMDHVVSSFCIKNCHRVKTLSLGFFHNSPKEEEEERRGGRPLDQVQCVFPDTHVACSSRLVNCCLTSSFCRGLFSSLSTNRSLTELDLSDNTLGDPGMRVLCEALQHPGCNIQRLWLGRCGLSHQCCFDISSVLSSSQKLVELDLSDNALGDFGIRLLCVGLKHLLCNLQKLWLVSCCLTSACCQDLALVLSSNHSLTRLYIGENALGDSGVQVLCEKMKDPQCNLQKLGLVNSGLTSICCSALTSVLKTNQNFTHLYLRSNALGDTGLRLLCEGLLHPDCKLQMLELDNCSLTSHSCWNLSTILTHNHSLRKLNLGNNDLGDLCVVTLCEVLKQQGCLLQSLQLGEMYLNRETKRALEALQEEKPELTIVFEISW
# Description: as §1, §2, §3, §4
# [3] = compound 50 μM, positive control nigericin 5 μM
# [4] = compound 50 μM, read-out: Average LDH release (% of max.)
# [5] = single replicates, compound 50 μM, read-out: LDH release (% of max.)
# [6] = IL-1β release, compound 50 μM, positive control nigericin 5 μM
# [7] = compound 50 μM, LPS-primed BMDCs
# [8] = single replicates, compound 50 μM, LPS-primed BMDCs
Compound,"Average (% positive control) [1, 3]","cytotoxicity at 50 µM [1, 4]","cytotoxicity at 50 µM [1, 5]","Average (% positive control) [2, 6]","Average IL-1β [2, 7]","IL-1β [2, 8]",also measured
"O=C(Nc1cccc(Cl)c1)Nc1ccc([N+](=O)[O-])cc1Cl [TCMDC-143175, 3-(2-chloro-4-nitrophen-yl)-1-(3-chlorophenyl)-urea]",,,,,,,"cytotoxicity at 18.75 µM ([1]; section 1.4, 18.75 μM, read-out: Average LDH release (% of max.)): 35.5%; cytotoxicity at 37.5 µM ([1]; section 1.4, 37.5 μM, read-out: Average LDH release (% of max.)): 74.7%; cytotoxicity at 75 µM ([1]; section 1.4, 75 μM, read-out: Average LDH release (% of max.)): 91.4%; cytotoxicity at 18.75 µM ([1]; section 1.4, single replicates, 18.75 μM, read-out: LDH release (% of max.)): 35.3%; cytotoxicity at 37.5 µM ([1]; section 1.4, single replicates, 37.5 μM, read-out: LDH release (% of max.)): 72.8%; cytotoxicity at 75 µM ([1]; section 1.4, single replicates, 75 μM, read-out: LDH release (% of max.)): 91.5%; Average (% positive control) ([1]; section 1.4, 18.75 μM, positive control EN22 18.75 μM): 49.754 % positive control; Average (% positive control) ([1]; section 1.4, 37.5 μM, positive control EN22 18.75 μM): 104.647 % positive control; Average (% positive control) ([1]; section 1.4, 75 μM, positive control EN22 18.75 μM): 128.113 % positive control; Average IL-1β ([2]; 18.75 μM): 0.105 ng/mL; IL-1β ([2]; 18.75 μM, individual replicate values): 0.102 ng/mL and 0.104 ng/mL and 0.110 ng/mL; Average IL-1β ([2]; 37.5 μM): 0.291 ng/mL; IL-1β ([2]; 37.5 μM, individual replicate values): 0.309 ng/mL and 0.275 ng/mL and 0.290 ng/mL; Average IL-1β ([2]; 75 μM): 0.417 ng/mL; IL-1β ([2]; 75 μM, individual replicate values): 0.423 ng/mL and 0.381 ng/mL and 0.446 ng/mL; Average (% positive control) ([2]; IL-1β, 18.75 μM, positive control EN22 18.75 μM): 1.666 % positive control; Average (% positive control) ([2]; IL-1β, 37.5 μM, positive control EN22 18.75 μM): 4.609 % positive control; Average (% positive control) ([2]; IL-1β, 75 μM, positive control EN22 18.75 μM): 6.592 % positive control"
"Cc1ccc(N2C(=O)N(Cc3nc(-c4ccc(F)cc4)no3)C(=O)C2C)cc1 (stereo not drawn) [L01.130, 3-{[3-(4-fluorophenyl)-1,2,4-oxadiazol-5-yl]-methyl}-5-methyl-1-(4-methylphenyl)imidazol-idine-2,4-dione]",11.646 % positive control,8.52%,9.39%,4.350 % positive control,0.312 ng/mL,0.404 ng/mL and 0.317 ng/mL and 0.215 ng/mL,
"O=C(Nc1ccccc1)Nc1cccc(NC(=O)NC2CC2)c1 [L01.122, 3-cyclopropyl-1-{3-[(phenylcarbamoyl)-amino]phenyl}urea]",11.054 % positive control,8.09%,9.16%,1.214 % positive control,0.087 ng/mL,0.072 ng/mL and 0.093 ng/mL and 0.095 ng/mL,
"O=C(NCc1nc(C2CC2)no1)Nc1cccc(F)c1 [L01.081, 3-[(3-cyclopropyl-1,2,4-oxadiazol-5-yl)methyl]-1-(3-fluorophenyl)urea]",8.656 % positive control,6.33%,6.87%,1.093 % positive control,0.078 ng/mL,0.075 ng/mL and 0.072 ng/mL and 0.088 ng/mL,
"O=C(Nc1ccccc1)Nc1ccc(NC(=O)C(F)F)cc1 [L01.016, 2,2-difluoro-N-{4-[(phenylcarbamoyl)-amino]phenyl}acet-amide]",17.216 % positive control,12.6%,11.6%,10.857 % positive control,0.778 ng/mL,0.755 ng/mL and 0.723 ng/mL and 0.857 ng/mL,
"Cc1ccc(N2C(=O)C(=O)N(Cc3nc(-c4ccsc4)no3)C2=O)cc1 [L01.071, 1-(4-methylphenyl)-3-{[3-(thiophen-3-yl)-1,2,4-oxadiazol-5-yl]-methyl}imidazolidine-2,4,5-trione]",11.833 % positive control,8.66%,9.01%,1.598 % positive control,0.115 ng/mL,0.116 ng/mL and 0.097 ng/mL and 0.131 ng/mL,
"CCc1ccc(Cl)c(CC)c1NC(=O)NC(c1nc(-c2cccnc2)no1)C(C)C (stereo not drawn) [L01.113, 1-(3-chloro-2,6-diethyl-phenyl)-3-{2-methyl-1-[3-(pyridin-3-yl)-1,2,4-oxadiazol-5-yl]propyl}-urea]",49.256 % positive control,36%,37.4%,15.691 % positive control,1.125 ng/mL,1.145 ng/mL and 1.165 ng/mL and 1.064 ng/mL,
"CC(C)CC(NC(=O)Nc1cccc(N2CCNC2=O)c1)c1nc(-c2nnc[nH]2)no1 (stereo not drawn) [L01.010, 3-{3-methyl-1-[3-(4H-1,2,4-triazol-3-yl)-1,2,4-oxadiazol-5-yl]butyl}-1-[3-(2-oxoimidazolidin-1-yl)phenyl]urea]",7.822 % positive control,5.72%,5.64%,0.822 % positive control,0.059 ng/mL,0.065 ng/mL and 0.059 ng/mL and 0.053 ng/mL,
"CC(C)Oc1ccccc1NC(=O)NCc1nc(C2CC2)no1 [L01.083, 3-[(3-cyclopropyl-1,2,4-oxadiazol-5-yl)-methyl]-1-[2-(propan-2-yloxy)phenyl]urea]",8.649 % positive control,6.33%,6.8%,1.180 % positive control,0.085 ng/mL,0.080 ng/mL and 0.077 ng/mL and 0.097 ng/mL,
"COc1ccc(F)cc1NC(=O)NC(c1nc(-c2cccnc2)no1)C(C)C (stereo not drawn) [L01.007, 1-(5-fluoro-2-methoxy-phenyl)-3-{2-methyl-1-[3-(pyridin-3-yl)-1,2,4-oxadiazol-5-yl]propyl}-urea]",27.756 % positive control,20.3%,17.8%,16.422 % positive control,1.177 ng/mL,0.859 ng/mL and 1.572 ng/mL and 1.101 ng/mL,
"O=C(Nc1ccccc1)Nc1cccc(NC(=O)C2CC2)c1 [L01.084, N-{3-[(phenylcarbamo-yl)amino]phenyl}cyclo-propanecarboxamide]",8.054 % positive control,5.89%,6%,1.362 % positive control,0.098 ng/mL,0.083 ng/mL and 0.111 ng/mL and 0.099 ng/mL,
"Cc1cccc(NC(=O)Nc2ccccc2)c1 [L01.077, 3-(3-methylphenyl)-1-phenylurea]",7.980 % positive control,5.84%,5.28%,1.368 % positive control,0.098 ng/mL,0.067 ng/mL and 0.165 ng/mL and 0.062 ng/mL,
